The text below walks through data of patent publication US20250228835A1, “PYRIDINYLOXYPYRIDINES AND RELATED COMPOUNDS AND THEIR USE IN TREATING MEDICAL CONDITIONS” (Rectify Pharmaceuticals, Inc., priority 2024, published 2025).

One assay concerns the target T1, ABCB4 WT (Homo sapiens, UniProt P21439).
T1 construct: expressed in transfected cells
Kind of assay: ABCB4 WT assay: HiBit protein expression. In kind it is cell-based. To be noted: HEK-293 cells stably expressing HiBit-tagged ABCB4 WT; 24 h treatment; top concentration 30 μM; read-out: ABCB4 WT EC50, Emax. An excerpt:
To assess activity against ABCB4, compounds were screened in an assay measuring protein expression, using cells transfected with cDNA encoding HiBit-tagged ABCB4 wild-type.
(§1) Described here is an assay for measuring the expression of the wild type of human ABCB4 (henceforth referred to as ABCB4 WT) and the use of this assay to measure the efficacy of compounds to increase the expression of ABCB4 WT. The assay was designed to characterize the efficacy and potency of compounds to increase the expression of ABCB4 WT by calculating an Emax and EC50 value. HEK-293 cells stably expressing ABCB4 WT (HEK-293/ABCB4 WT) were used for this assay and were maintained at 37° C. (5% CO2, humidified) in Dulbecco's Modified Eagle Medium (DMEM, Gibco product #12100) supplemented with 10% fetal bovine serum (Biosera product #FB-1058/500), 1% PenStrep (HDB product #15140-122), and 0.5 mg/mL puromycin (Gibco product #A11138-03). For the assay, the HEK-293/ABCB4 WT cells were seeded in white/opaque 384-well plates (Corning product #3570) at 10,000 cells/well in 20 μl growth medium and allowed to settle for 4 hours at 37° C. (5% CO2, humidified). Compound serial dilutions are prepared in DMSO as three hundred times (333×) the final concentration and using a dilution factor of 3 using Bravo (Agilent). After the four-hour incubation period, 60 nL of DMSO solutions are transferred to the assay plate.
(§2) Dose response curves include eleven doses with the top final concentration at 30 μM in 0.3% DMSO. Liquid handling is performed with ECHO 550 Acoustic Liquid Handler (Labcyte). After addition of compound treatment, cells are incubated for 24 hours at 37° C. (5% CO2, humidified). After the 24-hour treatment, plates are allowed to equilibrate to room temperature for 10 minutes. Using Dragonfly Automated Liquid Handler (TTP LabTech), 20 μl of HiBit lytic assay reagent (Promega, product #N3040), which is prepared according to manufacturer's instructions, is added to each well. The plates are rotated at room temperature for 2 minutes and incubated for 1 hour at 25° C. before luminescent signal is acquired using an EnVision Multimode Plate Reader (PerkinElmer).
Results are presented below in Table 5 for ABCB4 WT.
On the technique in general: The HiBiT peptide binds its large partner to form an active luciferase.

The target in another assay is T2, ABCD2 WT (Homo sapiens, UniProt Q9UBJ2).
T2 construct: expressed in transfected cells
T2 sequence (Q9UBJ2 1-740): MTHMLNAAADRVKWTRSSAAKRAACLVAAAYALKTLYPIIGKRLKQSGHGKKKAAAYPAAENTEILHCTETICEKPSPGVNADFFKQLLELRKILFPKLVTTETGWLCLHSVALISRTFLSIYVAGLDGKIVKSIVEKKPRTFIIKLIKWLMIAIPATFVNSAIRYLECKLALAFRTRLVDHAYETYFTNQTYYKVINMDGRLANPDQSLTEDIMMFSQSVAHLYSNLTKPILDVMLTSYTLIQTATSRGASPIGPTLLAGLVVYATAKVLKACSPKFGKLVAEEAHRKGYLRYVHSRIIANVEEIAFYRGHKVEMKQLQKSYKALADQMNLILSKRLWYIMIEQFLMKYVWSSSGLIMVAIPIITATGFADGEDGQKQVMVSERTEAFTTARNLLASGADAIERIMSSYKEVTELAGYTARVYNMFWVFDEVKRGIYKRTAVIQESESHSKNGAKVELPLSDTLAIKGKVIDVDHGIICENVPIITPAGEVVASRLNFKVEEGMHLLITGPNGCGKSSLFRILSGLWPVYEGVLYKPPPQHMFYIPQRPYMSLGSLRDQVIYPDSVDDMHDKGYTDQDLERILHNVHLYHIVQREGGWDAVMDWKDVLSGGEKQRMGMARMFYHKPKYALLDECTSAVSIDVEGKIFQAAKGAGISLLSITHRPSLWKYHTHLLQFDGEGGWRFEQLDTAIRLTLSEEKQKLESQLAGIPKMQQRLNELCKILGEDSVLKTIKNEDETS
Kind of assay: D2 correction dose-response assay: ABCD2 WT HiBit protein expression. The assay is classed as cell-based. To be noted: HEK-293/ABCD2 WT cells, 24 hours treatment, HiBit luminescence; class combines EC50 and Mean MaxAct (fold); read-out: ABCD2 WT EC50, Emax. The method, then: Exemplary compounds were evaluated in a D2 correction dose-response assay.
as §1, with “To assess activity against ABCD2, the compounds were screened in an assay measuring protein expression, using cells transfected with cDNA encoding HiBit-tagged ABCD2 wild-type. Here we describe” for “Described here is”, “ABCD2” for “ABCB4”, “(HEK-293/ABCD2” for “(HEK-293/ABCB4”, “HEK-293/ABCD2” for “HEK-293/ABCB4”
as §2

T1 sequence (P21439 whole entry): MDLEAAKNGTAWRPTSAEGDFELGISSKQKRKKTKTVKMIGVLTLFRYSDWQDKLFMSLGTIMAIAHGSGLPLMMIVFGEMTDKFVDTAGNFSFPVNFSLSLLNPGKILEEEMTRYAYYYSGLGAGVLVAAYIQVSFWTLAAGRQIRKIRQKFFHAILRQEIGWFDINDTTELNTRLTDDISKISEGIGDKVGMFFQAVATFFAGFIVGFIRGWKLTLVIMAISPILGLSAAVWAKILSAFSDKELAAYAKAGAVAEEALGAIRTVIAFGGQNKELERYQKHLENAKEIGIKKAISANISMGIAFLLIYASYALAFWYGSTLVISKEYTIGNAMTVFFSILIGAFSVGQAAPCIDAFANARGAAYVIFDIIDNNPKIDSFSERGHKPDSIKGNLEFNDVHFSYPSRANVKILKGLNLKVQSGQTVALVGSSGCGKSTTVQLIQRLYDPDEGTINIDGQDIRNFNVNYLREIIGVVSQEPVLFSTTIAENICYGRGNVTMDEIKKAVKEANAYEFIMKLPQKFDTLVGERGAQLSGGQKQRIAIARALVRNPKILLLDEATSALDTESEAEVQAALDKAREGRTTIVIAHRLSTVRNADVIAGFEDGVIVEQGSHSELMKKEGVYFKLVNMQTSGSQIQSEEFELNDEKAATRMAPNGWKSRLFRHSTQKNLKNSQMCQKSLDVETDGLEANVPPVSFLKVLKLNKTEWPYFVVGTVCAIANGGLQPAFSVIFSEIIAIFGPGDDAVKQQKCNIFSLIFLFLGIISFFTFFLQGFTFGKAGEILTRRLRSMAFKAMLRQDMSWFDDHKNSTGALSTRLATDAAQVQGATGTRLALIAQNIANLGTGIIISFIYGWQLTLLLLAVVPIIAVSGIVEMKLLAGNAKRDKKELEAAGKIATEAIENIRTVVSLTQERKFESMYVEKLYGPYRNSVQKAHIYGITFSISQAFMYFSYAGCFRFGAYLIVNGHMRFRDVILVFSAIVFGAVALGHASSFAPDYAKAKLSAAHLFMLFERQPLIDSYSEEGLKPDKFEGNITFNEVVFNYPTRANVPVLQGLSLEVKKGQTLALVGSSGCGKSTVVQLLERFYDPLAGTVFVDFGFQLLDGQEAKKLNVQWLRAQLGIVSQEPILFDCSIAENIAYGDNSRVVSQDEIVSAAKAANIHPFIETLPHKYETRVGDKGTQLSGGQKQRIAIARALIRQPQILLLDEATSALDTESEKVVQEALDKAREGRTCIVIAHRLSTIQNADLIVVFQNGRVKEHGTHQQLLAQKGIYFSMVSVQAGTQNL

The EC50 is the concentration that produces a half-maximal response. Turning to `Cc1nc(C(F)(F)F)nc(C2CC2)c1Oc1nc(-c2cncc(C#N)c2)ccc1N(C)S(C)(=O)=O` [Compound I-142], the EC50 was not below 25 µM on ABCB4 WT and 1 to 10 µM on ABCD2 WT.

As to `Cc1cc(C(F)(F)F)nc(C2CC2)c1Oc1nc(-c2cncc(C#N)c2)ccc1NS(=O)(=O)C(C)C` [Compound I-141], the 50% effective concentration (EC50) at ABCB4 WT and at ABCD2 WT was less than 1 µM throughout.

`Cc1cc(C(F)(F)F)nc(C2CC2)c1Oc1nc(-c2cncc(C#N)c2)ccc1N(C)S(C)(=O)=O` [Compound I-156]: the 50% effective concentration (EC50) on ABCB4 WT was not below 25 µM; on ABCD2 WT it was less than 1 µM.

Turning to `Cc1cc(C)c(Oc2nc(-c3cncc(C#N)c3)ccc2N(C)S(=O)(=O)c2cccnc2)c(C2CC2)n1` [Compound I-136], the EC50 on ABCB4 WT is less than 1 µM; at ABCD2 WT it was 1 to 10 µM.

On to `Cc1cc(C)c(Oc2nc(-c3ccc(C#N)nc3)ccc2NS(C)(=O)=O)c(C)n1` [Compound I-7], for which the EC50 on ABCB4 WT and on ABCD2 WT was less than 1 µM throughout.

`Cc1nc(C)c(Oc2nc(-c3cncc(Cl)c3)ccc2NS(C)(=O)=O)c(C2CC2)n1` [Compound I-164]: the EC50 at ABCB4 WT and at ABCD2 WT was 1 to 10 µM each time.

Consider `Cc1sc(C2CC2)nc1Oc1nc(-c2cncc(C#N)c2)ccc1NS(C)(=O)=O` [Compound I-299], for which the EC50 on ABCB4 WT and at ABCD2 WT was less than 1 µM each time.

With `Cc1cc(C)c(Oc2nc(-c3cncc(Cl)c3)ccc2S(C)(=O)=O)c(C)c1` [Compound I-104], the figures for the EC50 on ABCB4 WT and at ABCD2 WT were 1 to 10 µM and more than 25 µM, respectively.

Take `Cc1cc(C(F)(F)F)nc(C2CC2)c1Oc1nc(-c2cncc(C#N)c2)ccc1S(=O)(=O)NC1CC1` [Compound I-133]: the EC50 on ABCB4 WT is 1 to 10 µM; at ABCD2 WT it was less than 1 µM.

Regarding `Cc1nc(C(F)(F)F)nc(C2CC2)c1Oc1nc(-c2cncc(Cl)c2)ccc1N(C)S(C)(=O)=O` [Compound I-149], the EC50 on ABCB4 WT was not below 25 µM; at ABCD2 WT, more than 25 µM.

Regarding `Cc1cc(C)c(Oc2nc(-c3cncc(Cl)c3)ccc2S(=O)(=O)NC2CC2)c(C)c1` [Compound I-98], the EC50 at ABCB4 WT is less than 25 µM; at ABCD2 WT, less than 1 µM.

In the case of `Cc1nc(C(F)(F)F)cc(C2CC2)c1Oc1nc(-c2cncc(C#N)c2)ccc1NS(C)(=O)=O` [Compound I-155], the EC50 was less than 1 µM at ABCB4 WT and more than 25 µM on ABCD2 WT.

As for `CNS(=O)(=O)c1ccc(-c2cncc(C#N)c2)nc1Oc1c(C)nc(C(F)(F)F)nc1C1CC1` [Compound I-315], the half-maximal effective concentration (EC50) at ABCB4 WT was not below 25 µM; at ABCD2 WT it was 10 to 25 µM.

`Cc1cc(C)c(Oc2nc(-c3cncc(C#N)c3)ccc2NS(C)(=O)=O)c(C)n1` [Compound I-5]: the EC50 on ABCB4 WT and at ABCD2 WT was less than 1 µM each time.

On to `CNS(=O)(=O)c1ccc(-c2cncc(C#N)c2)nc1Oc1c(C)cc(C(F)F)nc1C1CC1` [Compound I-289], for which the EC50 lay in the range of 10 to 25 µM at ABCB4 WT and 1 to 10 µM at ABCD2 WT.

As to `Cc1cc(C2CC2)nc(C2CC2)c1Oc1nc(-c2cncc(C#N)c2)ccc1NS(C)(=O)=O` [Compound I-161], the EC50 on ABCB4 WT was less than 1 µM; at ABCD2 WT, more than 25 µM.
